Experimental data taken from patent US20210161804A1, “FLUTICASONE AND VILANTEROL FORMULATION AND INHALER” (KINDEVA DRUG DELIVERY L.P., priority 2018, published 2021).

How the values were obtained:
[1] = Next Generation Impactor (NGI) aerodynamic particle size distribution; assay type: physicochemical
Experimental: The aerodynamic particle size distribution emitted from each MDI was evaluated using a Next Generation Impactor Instrument (MSP Corporation, Shoreview, Minn.). For each test, an MDI was attached to the throat component (Emmace anatomical throat, Emmace Consulting, Lund, Sweden) of the NGI instrument and actuated 6 times into the instrument. Prior to each actuation the MDI was vigorously shaken Immediately prior to attachment, the MDI was primed by actuating 4 times. Prior to each priming shot the MDI was vigorously shaken. The flow rate through the instrument during testing was regulated at 30 L/minute. The test sample (fluticasone furoate and vilanterol trifenatate) deposited on the valve stem, actuator, throat assembly (Emmace anatomical throat), individual uncoated collection cups 1-7, micro-orifice collector (MOC), and final filter component was collected by rinsing each individual component with a known volume of collection solvent. The recovered samples were then analyzed for sample content using an HPLC assay with reference to a known standard. An HPLC instrument with a UV detector (220 nm at 0 minutes, 240 nm at 5 minutes) and a symmetry shield RP-18, 4.6-150 mm column (25° C. column temp) was used. The mobile phase was 10 mM SDS, 60:40 (v/v) […]:50 mM NH4OAc, pH 5.5). The injection volume was 50 microliters and the flow rate was 1.0 mL/min.
In Table 1 the fine particle mass (FPM), impactor sized mass (ISM), mass median aerodynamic diameter (MMAD), and throat hold up data for fluticasone furoate (FF) and vilanterol trifenatate (VT) is presented. At each time point 3 individual MDIs were tested and the result is presented as the mean value.
Total Ex-valve content was determined as the sum of the sample content from all twelve analyzed components (valve stem through filter) (reported as micrograms/actuation).
Throat hold up was determined as the ratio of the sample content from the throat assembly divided by the total ex-valve content.
Aerodynamic particle size from a Relvar® Ellipta® 92/22 (fluticasone furoate/vilanterol trifenatate) dry powder inhaler was evaluated as described above for NGI studies with the following changes. The Relvar device was not primed prior to analysis, nor was it shaken prior to actuation. For each test the Relvar was actuated once. An adaptor was prepared and used to obtain a good fit between device mouthpiece and the Emmace throat. A flow rate of approximately 80 L/min was used to achieve a 4 kPa pressure drop in the NGI. A pre-separator was used between the throat assembly and cup 1. Cups 1 to 7 were pre-coated with 50:50 (v/v) glycerol:methanol.
In tables 1-8 above, FPM and ISM are reported as micrograms (mcg) per actuation and MMAD is reported in microns (um). FPM (Fine Particle Mass) was determined as the sum of the sample content determined for cups 3-7, the MOC, and the filter. ISM (Impactor Sized Mass) was determined as the sum of the sample content determined for cups 2-7, the MOC, and the filter. In the examples, the concentrations of fluticasone furoate, vilanterol trifenatate, ethanol, and HFA-227 in the suspension formulations are reported as weight percent (wt. %).

[2] = Through life delivered dose (unit spray collection apparatus); assay type: physicochemical; details: beginning, middle, end of unit, 3 MDIs, 28.3 L/minute
Experimental: The through life delivered dose was determined using standard unit spray collection apparatus (USCA) fitted with a filter. For each determination, an MDI was attached to the USCA using a coupler. Immediately prior to attachment, the MDI was vigorously shaken. Prior to collection of the test sample, the MDI was primed by actuating four times and before each priming actuation the MDI was vigorously shaken. For each example tested, three MDIs were used. Each MDI was tested with a single actuation into the instrument at the beginning, middle, and end of the unit resulting in 3 actuations per MDI (9 actuations total). The flow rate through the equipment was regulated to 28.3 L/minute+/−0.5 L/minute. The test sample deposited in the USCA was collected by rinsing with a known volume of collection solvent. The recovered samples were then analyzed for sample content using an HPLC assay with reference to a known standard. An HPLC instrument with a UV detector (220 nm at 0 minutes, 240 nm at 5 minutes) and a symmetry shield RP18, 150 mm×4.6 mm (3.5 microns) column (temperature 25° C.) was used. The mobile phase was 10 mM SDS (sodium dodecyl sulphate), 60:40 (v/v) acetetonitrile:50 mM NH4OAc (ammonium acetate), pH 5.50. The injection volume was 50 microliters and the flow rate was 1.0 mL/minute.

[3] = Comparative Example 1: Relvar Ellipta 92/22 dry powder inhaler, actuated once, approximately 80 L/min (4 kPa), pre-separator
[4] = Comparative Example 1: Relvar Ellipta 92/22 dry powder inhaler, approximately 80 L/min (4 kPa), pre-separator
[5] = MDI of Example 1: FF MMD about 3.7 microns, VT MMD about 1.4 microns, HFA-227, 30 L/minute
[6] = MDI of Example 1: FF MMD about 3.7 microns, VT MMD about 1.4 microns, HFA-227, 30 L/minute, Emmace anatomical throat
[7] = MDI of Example 1: FF MMD about 3.7 microns, VT MMD about 1.4 microns, HFA-227, per actuation, 30 L/minute
[8] = MDI of Example 1: FF MMD about 3.7 microns, VT MMD about 1.4 microns, HFA-227, per actuation, 30 L/minute, mean of 3 MDIs
[9] = MDI of Example 2: FF MMD about 2.9 microns, VT MMD about 1.4 microns, HFA-227, 30 L/minute
[10] = MDI of Example 2: FF MMD about 2.9 microns, VT MMD about 1.4 microns, HFA-227, per actuation, 30 L/minute
[11] = MDI of Example 3: FF MMD about 3.7 microns, VT MMD about 4.2 microns, HFA-227, 30 L/minute
[12] = MDI of Example 3: FF MMD about 3.7 microns, VT MMD about 4.2 microns, HFA-227, per actuation, 30 L/minute
[13] = MDI of Example 4: FF MMD about 2.9 microns, VT MMD about 3.4 microns, HFA-227, 30 L/minute
[14] = MDI of Example 4: FF MMD about 2.9 microns, VT MMD about 3.4 microns, HFA-227, per actuation, 30 L/minute
[15] = MDI of Example 5: FF micronized MMD about 2.0 microns, VT high pressure homogenized MMD about 1.4 microns, HFA-227, 30 L/minute
[16] = MDI of Example 5: FF micronized MMD about 2.0 microns, VT high pressure homogenized MMD about 1.4 microns, HFA-227, per actuation, 30 L/minute
[17] = MDI of Example 6: FF MMD about 2.9 microns, VT MMD about 1.4 microns, 0.05% ethanol, HFA-227, 30 L/minute
[18] = MDI of Example 6: FF MMD about 2.9 microns, VT MMD about 1.4 microns, 0.05% ethanol, HFA-227, per actuation, 30 L/minute
[19] = MDI of Example 7: FF MMD about 2.9 microns, VT MMD about 1.4 microns, 0.5% ethanol, HFA-227, 30 L/minute
[20] = MDI of Example 7: FF MMD about 2.9 microns, VT MMD about 1.4 microns, 0.5% ethanol, HFA-227, per actuation, 30 L/minute
[21] = MDIs of Example 8 (58 microliter primeless valve, no ethanol, HFA-227)
[22] = MDIs of Example 9 (58 microliter primeless valve, 0.05% ethanol, HFA-227)
[23] = MDIs of Example 10 (58 microliter primeless valve, 0.5% ethanol, HFA-227)

| FPM (fine particle mass) [1, 3] [µg] | ISM (impactor sized mass) [1, 3] [µg] | MMAD (mass median aerodynamic diameter) [1, 4] [um] | Throat hold up [1, 4] [%] | MMAD (mass median aerodynamic diameter) [1, 5] [um] | Throat hold up [1, 6] [%] | ISM (impactor sized mass) [1, 7] [µg] | FPM (fine particle mass) [1, 8] [µg] | MMAD (mass median aerodynamic diameter) [1, 9] [um] | Throat hold up [1, 9] [%] | FPM (fine particle mass) [1, 10] [µg] | ISM (impactor sized mass) [1, 10] [µg] | MMAD (mass median aerodynamic diameter) [1, 11] [um] | Throat hold up [1, 11] [%] | FPM (fine particle mass) [1, 12] [µg] | ISM (impactor sized mass) [1, 12] [µg] | MMAD (mass median aerodynamic diameter) [1, 13] [um] | Throat hold up [1, 13] [%] | FPM (fine particle mass) [1, 14] [µg] | ISM (impactor sized mass) [1, 14] [µg] | also measured | SMILES |
| --- | --- | --- | --- | --- | --- | --- | --- | --- | --- | --- | --- | --- | --- | --- | --- | --- | --- | --- | --- | --- | --- |
| 26.5 | 31.5 | 3.4 | 26.0 | 3.5 | 52.8 | 27.7 | 19.6 | 3.1 | 38.8 | 27.0 | 35.9 | 4.0 | 47.0 | 25.0 | 37.5 | 3.2 | 43.0 | 28.5 | 38.4 | MMAD (mass median aerodynamic diameter) [1, 15]: 2.9 um; Throat hold up [1, 15]: 31.5%; FPM (fine particle mass) [1, 16]: 30.2 µg; ISM (impactor sized mass) [1, 16]: 35.7 µg; MMAD (mass median aerodynamic diameter) [1, 17]: 3.2 um; Throat hold up [1, 17]: 48.6%; FPM (fine particle mass) [1, 18]: 23.1 µg; ISM (impactor sized mass) [1, 18]: 31.5 µg; MMAD (mass median aerodynamic diameter) [1, 19]: 3.0 um; Throat hold up [1, 19]: 46.0%; FPM (fine particle mass) [1, 20]: 26.3 µg; ISM (impactor sized mass) [1, 20]: 34.9 µg; mean through life delivered dose [2, 21]: 57.1 micrograms/actuation; mean through life delivered dose [2, 22]: 55.5 micrograms/actuation; mean through life delivered dose [2, 23]: 58.0 micrograms/actuation | C[C@@H]1C[C@H]2[C@@H]3C[C@H](F)C4=CC(=O)C=C[C@]4(C)[C@@]3(F)[C@@H](O)C[C@]2(C)[C@@]1(OC(=O)c1ccco1)C(=O)SCF [FF, fluticasone furoate] |
| 11.6 | 12.3 | 1.8 | 16.1 | 1.9 | 34.0 | 10.8 | 10.0 | 2.0 | 28.5 | 9.9 | 10.8 | 3.7 | 43.4 | 6.5 | 8.9 | 3.1 | 41.0 | 7.5 | 9.8 | MMAD (mass median aerodynamic diameter) [1, 15]: 2.6 um; Throat hold up [1, 15]: 31.1%; FPM (fine particle mass) [1, 16]: 8.4 µg; ISM (impactor sized mass) [1, 16]: 9.5 µg; MMAD (mass median aerodynamic diameter) [1, 17]: 2.0 um; Throat hold up [1, 17]: 37.8%; FPM (fine particle mass) [1, 18]: 8.9 µg; ISM (impactor sized mass) [1, 18]: 9.9 µg; MMAD (mass median aerodynamic diameter) [1, 19]: 2.0 um; Throat hold up [1, 19]: 36.1%; FPM (fine particle mass) [1, 20]: 10.3 µg; ISM (impactor sized mass) [1, 20]: 11.2 µg; mean through life delivered dose [2, 21]: 13.8 micrograms/actuation; mean through life delivered dose [2, 22]: 13.3 micrograms/actuation; mean through life delivered dose [2, 23]: 14.4 micrograms/actuation | OCc1cc([C@@H](O)CNCCCCCCOCCOCc2c(Cl)cccc2Cl)ccc1O [VT, vilanterol trifenatate] |
